Measured values reported in US7378495B2, “PTH-rP related peptide cancer therapeutics” (Pevion Biotech, Ltd., priority 2002, dated 2008).
Marks after values point to notes of the source that are not given here. Bridges are numbered along the chain shown (N, C = ends). Where no end group is shown, it is not given here.

How the values were obtained:
[1] = 0.1 mg sc. in the dorsal neck, after 6 hours, three mice
HLA-A(*)02.01 molecules = HLA-A(*)02.01 molecules (Homo sapiens, UniProt P04439, D140Y/D185E/D98H/E176V/E277Q/G131W/G231S/I119V/I121R/I166T/I218V/L300P/L318F/N151K/N90K/P208A/P217A/Q86G/Q94H/R138H/R169H/T345S); assay: T2-A2 HLA up-regulation test (HLA-A2.1 class I up-regulation, peptide binding); details: positive cut-off 287.116
Method: T2-A2, HLA up-regulation test: binding of the PTR-2 and PTR-4 peptides to HLA-A(*)02.01 molecules was evaluated by means of flow cytometry using T2 cells and the method described by Nijman et al. In this assay, increased stability (the accumulation of HLA-A(*)02.01 molecules on the surface of T2 cells as a consequence of peptide binding) is measured in terms of the increased binding of the antibody directed against HLA-A(*)02.01. Briefly, 10^6 T2 cells in serum-free IMDM were incubated overnight with escalating concentrations (0, 5, 25 and 50 μg/ml) of the PTR peptides in 24-well culture plates at 37° C. in an atmosphere containing 5% CO2. The cells were then washed two times with DPBS, and subsequently incubated for one hour with an anti-HLA-A(*)02.01 (A2.69) specific monoclonal antibody (A2.69, #189HA-1; One Lambda, Inc., Canoga Park, Calif.), using 10 μl of the recommended dilution per 10^6 cells. UPC-10 (Cappel/Organon Teknika Corp) was used as an isotype control. The cells were again washed two times with DPBS, incubated with 100 μl of a 1:100 dilution of fluorescein isothiocyanate (FITC)-labeled anti-mouse IgG (Becton Dickinson Corp.), and analyzed by means of FACScan and single-color analysis. The cells were kept at 4° C. during all of the manipulations unless otherwise stated.
Peptide selection and HLA-A(*)02.01 binding: In order to test the immunogenicity of PTH-rP protein and test possible tolerance of human T cell repertoire specific for it, the PTH-rP molecules were screened with the “Parker” algorithm (BIMAS) in order to predict peptides having high theoretical HLA-A(*)02.01 binding motifs. The functional binding of the two peptides to HLA-A(*)02.01 molecules was tested in vitro by means of the T2 test. PTH-rP peptides with similar or overlapping amino acid homology to the analogue sequences of parathyroid hormone (PTH) were cut out of the screening. The peptide sequences included in the first 36 amino acids (pro-peptide) were ignored although theoretically predicted with higher affinity for the HLA-A(*)02.01 molecule. […]

Substance	Serum Ca (hypocalcemia induced by positive control) [1]	T2 binding (HLA-A(*)02.01 molecules; peptide 5 μg/ml)	T2 binding (HLA-A(*)02.01 molecules; peptide 25 μg/ml)	T2 binding (HLA-A(*)02.01 molecules; peptide 50 μg/ml)
Human synthetic thyreocalcitonin: Sigma-Aldrich # T3535, positive control capable to induce hypocalcemia (CGNLSTCMLGTYTQDFNKFHTFPQTAIGVGAP-NH2; disulfide 1-7; ends not checked; UniProt P01258 85-116, looked up)	0.64 ± 0.645 mmol/L	–	–	–
YLSGANLNL [CAP-1]	–	240^d relative fluorescence values	352^e relative fluorescence values	502.9^f relative fluorescence values
